We go through 23 compounds from US20230286925A1, “PHENYL TRIAZOLE MLL1-WDR5 PROTEIN-PROTEIN INTERACTION INHIBITOR” (HUYABIO International, LLC, priority 2022, published 2023).

In one test the target is hERG (Homo sapiens (Human), UniProt Q12809). Briefly: hERG assay (radioligand membrane binding). The procedure:
Procedure: Compounds were prepared and diluted with DMSO to make 0.2 mM and 0.02 mM. Reference compound was diluted with DMSO to make 8-point 4-fold serial dilution, starting at 0.2 mM. One μl of compounds/high control/low control was transferred to the assay plate according to the plate map. Next, and by following the plate map, 100 μl of membrane stocks was dispensed into the plate followed by adding 100 μl of radio ligand. Plates were then sealed and were incubated at RT for 1 hrs. In the meantime, soak the Unifilter-96 GF/C filter plates with 50 μl of 0.5% BSA per well for at least 0.5 hour at room temperature. When binding assays are completed, filter the reaction mixture through GF/C plates using Perkin Elmer Filtermate Harvester, and then wash each plate for 4 times with cold wash buffer. Next, Dry the filter plates for 1 hour at 50 degrees and seal the bottom of the filter plate wells using Perkin Elmer Unifilter-96 backing seal tape. Next, add 50 μl of Perkin Elmer Microscint 20 cocktail. Seal the top of the filter plate with Perkin Elmer TopSeal-A sealing film. Using Perkin Elmer MicroBeta2 Reader count ^3H trapped on filter. Finally, analyze the data with GraphPad Prism 5. Calculate the “Inhibition [% Control]” using the equation: % Inh=(1−Background subtracted Assay value/Background subtracted HC value)*100.
The compound of the disclosure were tested in several hERG assays.
A general note: The hERG channel carries a current that helps repolarise heart muscle cells.

Test [1] addresses MLL1-WDR5 protein-protein interaction (Homo sapiens (Human), UniProt P61964). The test can be described thus: WDR5 TR-FRET assay of inhibition against MLL1-WDR5 protein-protein interaction. The class given is binding. The note with it: WDR5 TR-FRET, 5 nM WDR5 protein, 10 nM peptide; read-out: MLL1-WDR5 PPI inhibitory activity. The procedure:
WDR5 TR-FRET Assay Procedure: Stock compounds were transferred to the assay plate by Echo Liquid Handler. Reactions were performed in the assay buffer (1×PBS, 300 mM NaCl, 0.5 mM TCEP, 0.1% CHAPS) containing 5 nM WDR5 protein, 10 nM peptide (Ac-ARTEVHLRKS-[Ahx-Ahx] [C]-Alexa Fluor 488-NH2) and 0.25 nM Tb-anti His antibody (Tb-Ab) in 384-well white plate (PerkinElmer) with a final volume of 20 μl. Compounds were incubated with WDR5 protein for 30 min at room temperature. Plates were covered, protected from light and incubated for 60 min at room temperature after adding the peptide and Tb-Ab. EnVision Multimode Plate Reader (PerkinElmer) was used for the TR-FRET assay with excitation wavelength at 340 nm and emission wavelength at 495 and 520 nm. The ratio of the 520/495 wavelengths were used to assess the degree of the FRET signal. IC50 was calculated by fitting the inhibition data using XLfit software to sigmoidal dose-response model.
Biphenyl compound DDO-2084 was reported to be a small molecule inhibitor that can inhibit MLL1-WDR5 protein-protein interaction, reduce MLL1 enzyme catalytic activity, and downregulate the expression of Hox and Meis-1 genes (Eur. J. Med. Chem. 2016, 124, 480-489). DDO-2084 is used as a positive control compound.
Background: Time-resolved FRET reads energy transfer from a long-lived donor to a nearby acceptor.

Another test has as its system MV-411 cells. The test can be described thus: Anti-proliferative activity against leukemia cells (CellTiterGlo viability, 72 hrs). As to conditions: Table 6. In kind it is cell-based. The procedure: Procedure: MV-411 or Molm-13 cells were seeded into 384 well plates at 2000 cells/well density in 50 uL according plate map and were allowed to naturally sediment by waiting about 30 min in Clean Bench. Next, plated cells were centrifuged for 1 min at 1000 rpm and the excess cells were transferred into the flasks for further culture. Cells in the assay plates were incubated (at least 4 hrs) at 37° C., 5% CO2 for next process followed by adding the compounds as the plate map indicated. The tests were performed in duplicates with treatment of compounds at 10 pts 3 fold titration in 384 well plates. Taxol was as positive control while DMSO as negative control. To rule out edge effect, the wells on the edge were not seeded and therefore one 384 well plate holds 13 compounds. Cells viability was measured 72 hrs after incubation with compounds and using CellTiterGlo (promega) viability assay according to manufactory's instruction to check the ATP production in each well.
Experiments on anti-proliferative activity against leukemia cells were conducted with some of the compounds of the invention.

Setting [2] is: MV4-11, MV-411 human acute monocytic leukemia cell.
The mark [3] stands for this setting: MV-411 human acute monocytic leukemia cell.

hERG, sequence (Q12809 whole entry): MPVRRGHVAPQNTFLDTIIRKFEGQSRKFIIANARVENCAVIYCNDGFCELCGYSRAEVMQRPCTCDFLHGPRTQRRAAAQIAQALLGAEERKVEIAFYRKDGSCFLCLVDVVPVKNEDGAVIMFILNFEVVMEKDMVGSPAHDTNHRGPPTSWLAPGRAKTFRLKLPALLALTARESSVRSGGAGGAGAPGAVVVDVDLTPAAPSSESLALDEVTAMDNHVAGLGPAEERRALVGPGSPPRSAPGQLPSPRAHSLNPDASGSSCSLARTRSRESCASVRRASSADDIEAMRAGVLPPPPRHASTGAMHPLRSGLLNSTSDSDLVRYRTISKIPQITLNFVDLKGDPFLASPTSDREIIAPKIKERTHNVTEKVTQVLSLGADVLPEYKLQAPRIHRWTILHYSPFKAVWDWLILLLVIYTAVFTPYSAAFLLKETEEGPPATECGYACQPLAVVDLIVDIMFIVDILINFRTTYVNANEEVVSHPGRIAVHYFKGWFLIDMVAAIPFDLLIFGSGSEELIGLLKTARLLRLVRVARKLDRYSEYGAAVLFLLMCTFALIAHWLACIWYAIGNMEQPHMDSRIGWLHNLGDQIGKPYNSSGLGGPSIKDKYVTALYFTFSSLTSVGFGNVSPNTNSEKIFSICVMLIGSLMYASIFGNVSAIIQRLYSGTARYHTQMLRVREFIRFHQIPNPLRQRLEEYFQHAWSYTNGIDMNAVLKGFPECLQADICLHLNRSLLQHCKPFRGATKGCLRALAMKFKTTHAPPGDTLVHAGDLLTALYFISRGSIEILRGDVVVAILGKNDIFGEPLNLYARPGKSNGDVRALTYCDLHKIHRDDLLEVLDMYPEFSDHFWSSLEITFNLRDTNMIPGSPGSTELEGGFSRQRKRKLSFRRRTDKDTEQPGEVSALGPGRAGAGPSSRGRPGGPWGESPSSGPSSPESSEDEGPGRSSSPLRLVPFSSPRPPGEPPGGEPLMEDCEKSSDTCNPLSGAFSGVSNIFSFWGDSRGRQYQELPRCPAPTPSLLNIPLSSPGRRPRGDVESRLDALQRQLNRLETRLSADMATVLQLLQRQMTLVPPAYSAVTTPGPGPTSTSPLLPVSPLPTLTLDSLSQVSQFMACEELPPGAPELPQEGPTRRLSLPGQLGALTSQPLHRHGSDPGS

At hERG, `CCN(CC)C(=O)c1cn(-c2cc(NC(=O)c3cc(N)c(F)c(C)c3Cl)c(N3C[C@@H](C)N(C)[C@@H](C)C3)cc2F)nn1` [Compound 29, 1-(5-(5-amino-2-chloro-4-fluoro-3-methylbenzamido)-2-fluoro-4-((3S,5R)-3,4,5-trimethylpiperazin-1-yl)phenyl)-N,N-diethyl-1H-1,2,3-triazole-4-carboxamide] had an IC50 of 3.6 µM and a Ki of 2040 nM. `Cc1c(F)c([N+](=O)[O-])cc(C(=O)Nc2cc(-n3cc(C(=O)NCCCN4CCOCC4)nn3)ccc2N2CCN(C)CC2)c1Cl` [Example 18, 1-[3-[(2-chloro-4-fluoro-3-methyl-5-nitro-benzoyl)amino]-4-(4-methylpiperazin-1-yl)phenyl]-N-(3-morpholinopropyl)triazole-4-carboxamide] had an IC50 on hERG above 10 µM. Same read-out and setting: the value for `CN1CCN(c2ccc(-n3cc(C(=O)NCCCN4CCOCC4)nn3)cc2NC(=O)c2ccc(F)c([N+](=O)[O-])c2)CC1` [Example 19, 1-(3-(4-fluoro-3-nitrobenzamido)-4-(4-methylpiperazin-1-yl)phenyl)-N-(3-morpholinopropyl)-1H-1,2,3-triazole-4-carboxamide] was above 10 µM; that for `CN1CCN(c2ccc(-n3cc(C(=O)NCCCN4CCOCC4)nn3)cc2NC(=O)c2ccc(F)c(C(F)(F)F)c2)CC1` [Example 21, 1-(3-(4-fluoro-3-(trifluoromethyl)benzamido)-4-(4-methylpiperazin-1-yl)phenyl)-N-(3-morpholinopropyl)-1H-1,2,3-triazole-4-carboxamide] was above 10 µM.

For the compound `Cc1cc(C(=O)Nc2cc(-n3cc(C(=O)NCCCN4CCOCC4)nn3)ccc2N2CCN(C)CC2)cc(C)c1F` [HYBI_037], the IC50 in test [1] was determined as 109 nM. Halving of growth with MV-411 cells (setting [2]) (GI50) required 8.38 µM. For `Cc1c(F)ccc(C(=O)Nc2cc(-n3cc(C(=O)NCCCN4CCOCC4)nn3)ccc2N2CCN(C)CC2)c1Cl` [HYBI_038], in that order: 185 nM and 17.5 µM. In the same order, the values of `Cc1c(F)c([N+](=O)[O-])cc(C(=O)Nc2cc(-n3cc(C(=O)NCCCN4CCOCC4)nn3)ccc2N2CCN(C)CC2)c1Cl` [HYBI_039] are 131 nM and 0.108 µM. In the same order, the values of `CN1CCN(c2ccc(-n3cc(C(=O)NCCCN4CCOCC4)nn3)cc2NC(=O)c2ccc(F)c([N+](=O)[O-])c2)CC1` [HYBI_040] are 828 nM and 0.21 µM. For the compound `CN1CCN(c2ccc(-n3cc(C(=O)NCCCN4CCOCC4)nn3)cc2NC(=O)c2ccc(F)c(C(F)(F)F)c2)CC1` [HYBI_042], in test [1], the IC50 amounted to 802 nM. Also, the GI50 with MV-411 cells (setting [2]) is 4.75 µM. As for `Cc1cc(C)cc(C(=O)Nc2cc(-n3cc(C(=O)NCCCN4CCOCC4)nn3)ccc2N2CCN(C)CC2)c1` [HYBI_044], the IC50 in test [1] was found to be 903 nM. Moreover, the GI50 in the test with MV-411 cells (setting [2]) was 64.8 µM.

For `CN1CCN(c2ccc(-n3cc(C(=O)NCCCN4CCOCC4)nn3)cc2NC(=O)c2cc(Cl)cc(Cl)c2)CC1` [HYBI_045], the IC50 in test [1] was determined as 384 nM. The 50% growth inhibitory concentration (GI50) in the test with MV-411 cells (setting [2]) was 4.15 µM. In the same order, the values of `CN1CCN(c2ccc(-n3cc(C(=O)NCCCN4CCOCC4)nn3)cc2NC(=O)c2cc(O)cc(C(F)(F)F)c2)CC1` [HYBI_046] are 271 nM and 10.5 µM. For `CN1CCN(c2ccc(-n3cc(C(=O)NCCCN4CCOCC4)nn3)cc2NC(=O)c2cc(O)cc(F)c2F)CC1` [HYBI_047], in that order: 466 nM and 16.8 µM. Turning to `CN1CCN(c2ccc(-n3cc(C(=O)NCCCN4CCOCC4)nn3)cc2NC(=O)c2nn(C)c3ccccc23)CC1` [HYBI_050], the IC50 in test [1] amounted to 5560 nM. In the test on MV-411 cells (setting [2]), this compound came in with a GI50 of 10.7 µM. `Cc1c(F)ccc(C(=O)Nc2cc(-n3cc(C(=O)NCCCN4CCOCC4)nn3)c(F)cc2N2CCN(C)CC2)c1Cl` [HYBI_053]: the IC50 in test [1] was determined as 19.4 nM. The same compound gave a GI50 with MV-411 cells (setting [3]) of 5.69 µM. On to `CCN(CC)C(=O)c1cn(-c2cc(NC(=O)c3cc(N)c(F)c(C)c3Cl)c(N3C[C@@H](C)N(C)[C@@H](C)C3)cc2F)nn1` [HYBI_082], for which the IC50 in test [1] was found to be 4.91 nM. The same compound returned a GI50 with MV-411 cells (setting [3]) of 2.4 µM. Regarding `Cc1c(F)c(N)cc(C(=O)Nc2cc(-n3cc(C(=O)N4CCOCC4)nn3)c(F)cc2N2C[C@@H](C)N(C)[C@@H](C)C2)c1Cl` [HYBI_083], the IC50 in test [1] was 3.08 nM. In the test on MV-411 cells (setting [2]), this compound yielded a 50% growth inhibitory concentration (GI50) of 40.2 µM. In the same order, the values of `Cc1c(F)c(N)cc(C(=O)Nc2cc(-n3cc(C(=O)N4CCN(C)CC4)nn3)c(F)cc2N2C[C@@H](C)N(C)[C@@H](C)C2)c1Cl` [HYBI_084] are 4.72 nM and 3.35 µM. On to `Cc1c(F)c(N)cc(C(=O)Nc2cc(-n3cc(C(=O)NC4CCCCC4)nn3)c(F)cc2N2C[C@@H](C)N(C)[C@@H](C)C2)c1Cl` [HYBI_085], for which the IC50 in test [1] was 3.86 nM. This compound displayed a GI50 in the test on MV-411 cells (setting [2]) of 2.51 µM. For `Cc1c(F)c(N)cc(C(=O)Nc2cc(-n3cc(C(=O)NC4CCOCC4)nn3)c(F)cc2N2C[C@@H](C)N(C)[C@@H](C)C2)c1Cl` [HYBI_086], in that order: 3.99 nM and 19.7 µM.

Take `Cc1c(F)c(N)cc(C(=O)Nc2cc(-n3cc(C(=O)NC4CCN(C)CC4)nn3)c(F)cc2N2C[C@@H](C)N(C)[C@@H](C)C2)c1Cl` [HYBI_087]: the IC50 in test [1] was 2.6 nM. Moreover, the GI50 in the test on MV-411 cells (setting [2]) is above 200 µM. For `Cc1c(F)c(N)cc(C(=O)Nc2cc(-n3cc(C(=O)NCCCN4CCN(C)CC4)nn3)c(F)cc2N2C[C@@H](C)N(C)[C@@H](C)C2)c1Cl` [HYBI_101], in that order: 3.65 nM and 10.5 µM. For `Cc1c(F)c(N)cc(C(=O)Nc2cc(-n3cc(C(=O)NCC4CCCCC4)nn3)c(F)cc2N2C[C@@H](C)N(C)[C@@H](C)C2)c1Cl` [HYBI_110], in that order: 3 nM and 25 µM.

One may read the Ki as a dissociation constant, usually derived from enzyme kinetics or from competition with a known ligand. The low end stands for higher affinity, the high end for lower affinity. In general, GI50 refers to the concentration giving 50% growth inhibition. Low readings indicate more potent growth inhibition, high ones less potent growth inhibition.
